Data reported in PubChem BioAssay AID1845199 (Molecular Pharmacology Branch, DTP, NCI, 2023).

Tested on: 556581-035-R-J1 tumor spheroid viability, % test/control
Experiment: Anticancer human tumor 556581-035-R-J1 patient-derived ovarian carcinoma cell line growth inhibition
Settings: spheroids with HUVEC and MSC; for IC50: curve of first compound; for viability, T/C: stronger effect = lower value
In short: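 Single agents and combinations were tested on spheroids built from tumor cells plus HUVEC and hMSC, at half-log dilutions starting at or near clinical Cmax, else 10 microM; final DMSO 0.25% (v/v).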

[1] = second compound 0.003 µM, first compound 0.0316 µM
[2] = second compound 0.003 µM, first compound 0.1 µM
[3] = second compound 0.003 µM, first compound 0.316 µM
[4] = second compound 0.003 µM, first compound 1 µM
[5] = second compound 0.003 µM, first compound 3.16 µM
[6] = second compound 0.003 µM, first compound 10 µM
[7] = second compound 0.00949 µM, first compound 0.0316 µM
[8] = second compound 0.00949 µM, first compound 0.1 µM
[9] = second compound 0.00949 µM, first compound 0.316 µM
[10] = second compound 0.00949 µM, first compound 1 µM
[11] = second compound 0.00949 µM, first compound 3.16 µM
[12] = second compound 0.00949 µM, first compound 10 µM
[13] = second compound 0.03 µM, first compound 0.0316 µM
[14] = second compound 0.03 µM, first compound 0.1 µM
[15] = second compound 0.03 µM, first compound 0.316 µM
[16] = second compound 0.03 µM, first compound 1 µM
[17] = second compound 0.03 µM, first compound 3.16 µM
[18] = second compound 0.03 µM, first compound 10 µM
[19] = second compound 0.0949 µM, first compound 0.0316 µM
[20] = second compound 0.0949 µM, first compound 0.1 µM
[21] = second compound 0.0949 µM, first compound 0.316 µM
[22] = second compound 0.0949 µM, first compound 1 µM
[23] = second compound 0.0949 µM, first compound 3.16 µM
[24] = second compound 0.0949 µM, first compound 10 µM
[25] = second compound 0.3 µM, first compound 0.0316 µM
[26] = second compound 0.3 µM, first compound 0.1 µM
[27] = second compound 0.3 µM, first compound 0.316 µM
[28] = second compound 0.3 µM, first compound 1 µM
[29] = second compound 0.3 µM, first compound 3.16 µM
[30] = second compound 0.3 µM, first compound 10 µM
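Further: spheroids exposed to compounds for 7 days before viability read.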

What does the source list for `CC(C)n1c(=O)n(C)c2cnc3cc(F)c(-c4ccc(OCCCN5CCCCC5)nc4)cc3c21` + CC[C@@]1(O)C(=O)OCc2c1cc1n(c2=O)Cc2cc3c(CN(C)C)c(O)ccc3nc2-1?
IC50 (second compound 0.003 µM): > 10000 nM; IC50 (second compound 0.00949 µM): > 10000 nM; IC50 (second compound 0.03 µM): > 10000 nM; IC50 (second compound 0.0949 µM): 3370 nM; IC50 (second compound 0.3 µM): < 31.6 nM; viability, T/C [1]: 84.2%; viability, T/C [2]: 85.9%; viability, T/C [3]: 80.6%; viability, T/C [4]: 82.4%; viability, T/C [5]: 62%; viability, T/C [6]: 60.6%; viability, T/C [7]: 81.9%; viability, T/C [8]: 76.4%; viability, T/C [9]: 77.6%; viability, T/C [10]: 77%; viability, T/C [11]: 72.7%; viability, T/C [12]: 58.9%; viability, T/C [13]: 75%; viability, T/C [14]: 73.5%; viability, T/C [15]: 71%; viability, T/C [16]: 72.1%; viability, T/C [17]: 66.5%; viability, T/C [18]: 54.5%; viability, T/C [19]: 49.7%; viability, T/C [20]: 51.4%; viability, T/C [21]: 51.7%; viability, T/C [22]: 55.3%; viability, T/C [23]: 50.3%; viability, T/C [24]: 36.8%; viability, T/C [25]: 12.3%; viability, T/C [26]: 12.5%; viability, T/C [27]: 13.1%; viability, T/C [28]: 13.6%; viability, T/C [29]: 12.1%; viability, T/C [30]: 11.6%

Which results are given for `COc1ccc([C@@H](O)c2cc(-c3ncnc4cc(N5CCOCC5)ccc34)c(F)cc2Cl)nn1` + CC[C@@]1(O)C(=O)OCc2c1cc1n(c2=O)Cc2cc3c(CN(C)C)c(O)ccc3nc2-1?
IC50 (second compound 0.003 µM): 1960 nM; IC50 (second compound 0.00949 µM): 1540 nM; IC50 (second compound 0.03 µM): 785 nM; IC50 (second compound 0.0949 µM): < 31.6 nM; IC50 (second compound 0.3 µM): < 31.6 nM; viability, T/C [1]: 99.8%; viability, T/C [2]: 99.8%; viability, T/C [3]: 83.4%; viability, T/C [4]: 63.7%; viability, T/C [5]: 40.5%; viability, T/C [6]: 31%; viability, T/C [7]: 85%; viability, T/C [8]: 86.9%; viability, T/C [9]: 75.3%; viability, T/C [10]: 57.8%; viability, T/C [11]: 37.8%; viability, T/C [12]: 31.2%; viability, T/C [13]: 70.9%; viability, T/C [14]: 64%; viability, T/C [15]: 62.9%; viability, T/C [16]: 46.6%; viability, T/C [17]: 33.7%; viability, T/C [18]: 29.5%; viability, T/C [19]: 48.6%; viability, T/C [20]: 47.6%; viability, T/C [21]: 50.5%; viability, T/C [22]: 41.8%; viability, T/C [23]: 30.8%; viability, T/C [24]: 25.5%; viability, T/C [25]: 13.7%; viability, T/C [26]: 11.9%; viability, T/C [27]: 11.6%; viability, T/C [28]: 13.2%; viability, T/C [29]: 17.4%; viability, T/C [30]: 18.5%
